The record followed here is US20130253022A1 (FOX CHASE CHEMICAL DIVERSITY CENTER, INC., priority 2010, published 2013).

By EC50 is commonly meant the concentration needed to bring the measured effect to its halfway point. What is called ED50 is the dose at which the effect has come halfway, by size or by number of responders. Higher therefore signals a need for a large dose.

One test deals with Hippocampal Cultures. Kind of test: Neuroprotection from hydrogen peroxide (oxidative stress), CFDA assay. Type of test: cell-based. The note with it: Rattus norvegicus; 10 μM hydrogen peroxide, hippocampal cultures, 4 hour test period; read-out: NP from Hydrogen Peroxide CFDA EC50. From the text:
Cell cultures: All compounds are screened with dissociated hippocampal cultures derived from embryonic day 18 rats as the primary test system. With this preparation, primary neurons are used to test for toxicity as well as neuroprotection in a highly relevant experimental system to epilepsy. In brief, hippocampal tissue are obtained commercially through Brain Bits (Springfield, Ill.) and cultures prepared as previously described by Brewer (Brewer, G. J. Serum-free B27/neurobasal medium supports differentiated growth of neurons from the striatum, substantia nigra, septum, cerebral cortex, cerebellum and dentate gyms, J. Neurosci. Res. 1995, 42, 674-683). The hippocampal neurons are platted at low density (10,000 cell/well) in a 96-well format and maintained in serum-free medium consisting of Neurobasal Medium supplemented with B27 and GlutaMAX (Gibco). Pre-coated poly-L-lysine coated plates are used because of the preferential adherence and survival of hippocampal neurons on this matrix support.
Potent neuroprotection is the distinguishing characteristic that separates this program's anticonvulsants from all other commercial drugs for epilepsy. The experimental details and the rationale for the implemented assays are essential in differentiating these compounds from that of others. The central objective of all neuroprotective assays was their relevancy to excitotoxicity and oxidative stress related to epilepsy. Both the amount of glutamate and hydrogen peroxide used in the assays, as well as the time of treatment and duration of the experiment, were designed to be relevant to epilepsy. Further, all time parameters employed in these studies were empirically determined to be within the limits of reversible toxic events, yet using amounts of glutamate and hydrogen peroxide that were relevant to the disease. In regard to glutamate toxicity, a critical feature was the duration of treatment of the hippocampal neurons. The rational for using a short 5 min treatment with glutamate was based on the observation of Randall and Thayer (Randall, R. D.; Thayer, S. A. Glutamate-induced calcium transient triggers calcium overload and neurotoxicity in rat hippocampal neurons, J. Neurosci. 1992, 12, 1882-1895). […] The rationale is that this intense burst of glutamate and resulting calcium overload is relevant to seizures and therefore was important data to capture in the screening assay. The amount of glutamate (30 μM) employed in our screening was based on the basal levels of glutamate observed in microdialysis measurements of hippocampus from epileptogenic patients (Cavus et al. Decreased hippocampal volume on MRI is associated with increased extracellular glutamate in epilepsy patients, Epilepsia, 2008, 49, 1358-1366). In regard to hydrogen peroxide, the amount employed (10 μM) was detected in the hippocampus of rats after kainate-induced status epilepticus (Jarrett et. al., Mitochondrial DNA damage and impaired base excision repair during epileptogenesis, Neurobiol. Dis. 2008, 30, 130-138). To produce neural damage and death with these amounts of glutamate and hydrogen peroxide, the cultures were changed to a medium with significant depletion of antioxidant components in the defined medium supplement B-27 just prior to treatment with the compounds. This was performed to obtain a significant and reproducible toxic signal in the hippocampal neurons and because loss of antioxidant control may be a component of epileptogenesis (Waldbaum and Patel, Mitochondria, oxidative stress and temporal lobe epilepsy, Epilepsy Res. 2010 88, 23-45; Wu et al., Mitochondrial DNA mutation-elicited oxidative stress, oxidative damage, and altered gene expression in cultured cells of patients with MERRF syndrome, Mol. Neurobiol. 2010, 41, 256-266). Neuroprotection studies with hydrogen peroxide were conducted with cultures that were between day 12 and day 18. Studies of neuroprotection glutamate were conducted between day 19 and day 22. […]

Test [1] relates to MES-induced seizure spread. The experiment in a line: Maximal electroshock seizure (MES) test, mouse. The test is classed as in vivo, mice. The note with it: for Duration of action MES: Mouse Maximal Electroshock (MES) test at 100 mg/kg, i.p.; for ED50: ip, mouse. The protocol: Seizure-related assays, Maximal electroshock test: The most definitive assay for anti-seizure activity is the maximal electroshock (MES) test (Swinyard, E. A. Laboratory evaluation of antiepileptic drugs: review of laboratory methods, Epilepsia, 1969, 10, 107-119). […] With both rodent assays, the duration of action is of high importance as well as the potency of the response.
Methods to measure anticonvulsant activity: All tests were conducted by the Anticonvulsant Screening Program (ASP) of the National Institute of Neurological Disease and Stroke at the National Institutes of Health.
The Maximal Electroshock Seizure (MES) or Maximal Seizure Pattern Test: The MES is a model for generalized tonic-clonic seizures (Putnam and Merritt. Experimental determination of the anticonvulsant properties of some phenyl derivatives. Science 1937, 85, 113-118). It is highly reproducible with consistent endpoints. The behavioral and electrographic seizures generated in this model are consistent with the human disorder. This model identifies those compounds which prevent seizure spread.
In the MES test, an electrical stimulus of 0.2 s in duration (50 mA in mice and 150 mA in rat at 60 Hz) is delivered via corneal electrodes primed with an electrolyte solution containing an anesthetic agent. Mice are tested at 30 minutes and 4 hours following doses of 30, 100 and 300 mg/kg of test compound. Test compounds are administered intraperitoneally to the mice. Rats are tested at time intervals between 0.25 and 4 hours following a standard oral dose of 30 mg/kg. Abolition of the hindlimb tonic extensor component indicates the test compound's ability to inhibit MES-induced seizure spread.

As for `NS(=O)(=O)NCC(F)(F)c1ccccc1Cl` [Example 2, 2,2-Difluoro-2-(2-chlorophenyl)-ethyl-1-sulfamide], the EC50 in the test with Hippocampal Cultures was 0.1 nM. In addition, in test [1], the “Duration of action MES” value stood at 4 h and the ED50 was determined as 54 mg/kg.

As to `NS(=O)(=O)NCC(F)(F)c1ccccc1F` [Example 1, 2,2-Difluoro-2-(2-fluorophenyl)-ethyl-1-sulfamide], the EC50 in the test on Hippocampal Cultures was 1 nM. Moreover, in test [1], the “Duration of action MES” value turned out to be 4 h and it took a dose of 50 mg/kg to reach the 50% effect level (ED50).
